This is an account of results in patent publication US8642590B2, “Alkylcyclohexylethers of dihydrotetraazabenzoazulenes” (Hoffmann-La Roche Inc., priority 2008, dated 2014).

Structures can show the parent of a compound that is named as a salt.

T1 sequence (P37288 whole entry): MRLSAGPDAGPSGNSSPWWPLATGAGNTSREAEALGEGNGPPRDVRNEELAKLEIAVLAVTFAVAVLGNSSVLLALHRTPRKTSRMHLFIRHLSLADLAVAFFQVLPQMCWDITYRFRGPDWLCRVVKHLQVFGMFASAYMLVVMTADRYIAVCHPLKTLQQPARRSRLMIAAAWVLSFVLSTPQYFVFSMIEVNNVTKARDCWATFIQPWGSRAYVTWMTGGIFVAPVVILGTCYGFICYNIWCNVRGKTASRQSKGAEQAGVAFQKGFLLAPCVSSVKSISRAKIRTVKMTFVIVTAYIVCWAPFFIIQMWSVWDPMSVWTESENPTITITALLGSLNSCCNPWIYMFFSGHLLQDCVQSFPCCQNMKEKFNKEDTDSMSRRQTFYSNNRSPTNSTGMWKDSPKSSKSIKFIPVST

The first test addresses T1, human V1a receptor (Homo sapiens, UniProt P37288).
T1 construct: expressed in transfected cells; host or cells: HEK293 cells, transiently transfected; cell membranes prepared
The experiment in a line: human V1a receptor binding study (3H-Vasopressin, SPA beads, HEK293 membranes).
Settings: not given
On the procedure: The human V1a receptor was cloned by RT-PCR from total human liver RNA. The coding sequence was subcloned in an expression vector after sequencing to confirm the identity of the amplified sequence. […] Cell membranes were prepared from HEK293 cells transiently transfected with the expression vector and grown in 20 liter fermenters with the following protocol.
50 g of cells are resuspended in 30 ml freshly prepared ice cold Lysis buffer (50 mM HEPES, 1 mM EDTA, 10 mM magnesium dichloride adjusted to pH=7.4+complete cocktail of protease inhibitor (Roche Diagnostics)). Homogenized with Polytron for 1 min and sonicated on ice for 2×2 minutes at 80% intensity (Vibracell sonicator). The preparation is centrifuged 20 min at 500 g at 4° C., the pellet is discarded and the supernatant centrifuged 1 hour at 43,000 g at 4° C. (19,000 rpm). The pellet is resuspended in 12.5 ml Lysis buffer+12.5 ml Sucrose 20% and homogenized using a Polytron for 1-2 min. The protein concentration is determined by the Bradford method and aliquots are stored at −80° C. until use. For binding studies 60 mg Yttrium silicate SPA beads (Amersham) are mixed with an aliquot of membrane in binding buffer (50 mM Tris, 120 mM sodium chloride, 5 mM potassium chloride, 2 mM Calcium dichloride, 10 mM magnesium dichloride) for 15 minutes with mixing. 50 μl of bead/membrane mixture is then added to each well of a 96 well plate, followed by 50 μl of 4 nM 3H-Vasopressin (American Radiolabeled Chemicals). For total binding measurement 100 μl of binding buffer are added to the respective wells, for non-specific binding 100 μl of 8.4 mM cold vasopressin and for compound testing 100 μl of a serial dilution of each compound in 2% dimethyl sulfoxide. The plate is incubated 1 h at room temperature, centrifuged 1 min at 1000 g and counted on a Packard Top-Count. Non-specific binding counts are subtracted from each well and data is normalized to the maximum specific binding set at 100%. To calculate an IC 50 the curve is fitted using a non-linear regression model (XLfit) and the Ki is calculated using the Cheng-Prussoff equation.
As for `CC(C)(C)OC(=O)N1Cc2cc(Cl)ccc2-n2c(nnc2[C@H]2CC[C@@H](OC3CCC3)CC2)C1` [Example 33, cis-8-Chloro-1-(4-cyclobutoxy-cyclohexyl)-4H,6H-2,3,5,10b-tetraaza-benzo[e]azulene-5-carboxylic acid tert-butyl ester], the Ki was 7.59 nM. Still for that read-out and setting: the figure for `CC(C)(C)OC(=O)N1Cc2cc(Cl)ccc2-n2c(nnc2[C@H]2CC[C@H](OC3CCCCC3)CC2)C1` [Example 39, trans-8-Chloro-1-(4-cyclohexyloxy-cyclohexyl)-4H,6H-2,3,5,10b-tetraaza-benzoazulene-5-carboxylic acid tert-butyl ester] is 6.46 nM; for `CC(C)(C)OC(=O)N1Cc2cc(Cl)ccc2-n2c(nnc2[C@H]2CC[C@@H](OC3CCCCC3)CC2)C1` [Example 42, cis-8-Chloro-1-(4-cyclohexyloxy-cyclohexyl)-4H,6H-2,3,5,10b-tetraaza-benzoazulene-5-carboxylic acid tert-butyl ester] it is 17.8 nM. For `CC(C)(C)OC(=O)N1Cc2cc(Cl)ccc2-n2c(nnc2[C@H]2CC[C@H](OC3COC3)CC2)C1` [Example 57, trans-8-Chloro-1-[4-(oxetan-3-yloxy)-cyclohexyl]-4H,6H-2,3,5,10b-tetraaza-benzo[e]azulene-5-carboxylic acid tert-butyl ester], the Ki was 6.17 nM.

The same test, now with this note: membranes of HEK293 cells transiently transfected with human V1a receptor; 3H-Vasopressin; Ki calculated using the Cheng-Prussoff equation; read-out: pKi (hV1a) (converted).
For the molecule `Clc1ccc2c(c1)CNCc1nnc([C@H]3CC[C@@H](OC4CCC4)CC3)n1-2` [Example 34, cis-8-Chloro-1-(4-cyclobutoxy-cyclohexyl)-5,6-dihydro-4H-2,3,5,10b-tetraaza-benzo[e]azulene hydrochloride], the Ki is 145 nM. With `CN1Cc2cc(Cl)ccc2-n2c(nnc2[C@H]2CC[C@@H](OC3CCC3)CC2)C1` [Example 35, cis-8-Chloro-1-(4-cyclobutoxy-cyclohexyl)-5-methyl-5,6-dihydro-4H-2,3,5,10b-tetraaza-benzo[e]azulene], the Ki is 7.94 nM.

`Clc1ccc2c(c1)CNCc1nnc([C@H]3CC[C@H](OC4CCCC4)CC3)n1-2` [Example 37, trans-8-Chloro-1-(4-cyclopentyloxy-cyclohexyl)-5,6-dihydro-4H-2,3,5,10b-tetraaza-benzo[e]azulene hydrochloride]: the Ki was 3.47 nM. Still for that read-out and setting: the figure for `CN1Cc2cc(Cl)ccc2-n2c(nnc2[C@H]2CC[C@H](OC3CCCC3)CC2)C1` [Example 38, trans-8-Chloro-1-(4-cyclopentyloxy-cyclohexyl)-5-methyl-5,6-dihydro-4H-2,3,5,10b-tetraaza-benzo[e]azulene] is 0.794 nM; for `Clc1ccc2c(c1)CNCc1nnc([C@H]3CC[C@H](OC4CCCCC4)CC3)n1-2` [Example 40, trans-8-Chloro-1-(4-cyclohexyloxy-cyclohexyl)-5,6-dihydro-4H-2,3,5,10b-tetraaza-benzoazulene hydrochloride] it is 34.7 nM; for `CN1Cc2cc(Cl)ccc2-n2c(nnc2[C@H]2CC[C@H](OC3CCCCC3)CC2)C1` [Example 41, trans-8-Chloro-1-(4-cyclohexyloxy-cyclohexyl)-5-methyl-5,6-dihydro-4H-2,3,5,10b-tetraaza-benzoazulene] it is 2.88 nM.

For the molecule `Clc1ccc2c(c1)CNCc1nnc([C@H]3CC[C@@H](OC4CCCCC4)CC3)n1-2` [Example 43, cis-8-Chloro-1-(4-cyclohexyloxy-cyclohexyl)-5,6-dihydro-4H-2,3,5,10b-tetraaza-benzoazulene hydrochloride], the Ki is 174 nM. Same read-out and setting: the figure for `CN1Cc2cc(Cl)ccc2-n2c(nnc2[C@H]2CC[C@@H](OC3CCCCC3)CC2)C1` [Example 44, cis-8-Chloro-1-(4-cyclohexyloxy-cyclohexyl)-5-methyl-5,6-dihydro-4H-2,3,5,10b-tetraaza-benzoazulene] is 14.1 nM. Same read-out and setting: the figure for `CN1Cc2cc(Cl)ccc2-n2c(nnc2[C@H]2CC[C@H](OC3COC3)CC2)C1` [Example 58, trans-8-Chloro-5-methyl-1-[4-(oxetan-3-yloxy)-cyclohexyl]-5,6-dihydro-4H-2,3,5,10b-tetraaza-benzo[e]azulene] is 46.8 nM; for `CC(C)(C)OC(=O)N1Cc2cc(Cl)ccc2-n2c(nnc2[C@H]2CC[C@H](OC3CCOCC3)CC2)C1` [Example 59, trans-8-Chloro-1-[4-(tetrahydro-pyran-4-yloxy)-cyclohexyl]-4H,6H-2,3,5,10b-tetraaza-benzoazulene-5-carboxylic acid tert-butyl ester] it is 5.62 nM. Still for that read-out and setting: the figure for `CC(C)(C)OC(=O)N1Cc2cc(Cl)ccc2-n2c(nnc2[C@H]2CC[C@@H](OC3CCOCC3)CC2)C1` [Example 60, cis-8-Chloro-1-[4-(tetrahydro-pyran-4-yloxy)-cyclohexyl]-4H,6H-2,3,5,10b-tetraaza-benzoazulene-5-carboxylic acid tert-butyl ester] is 7.08 nM; for `Clc1ccc2c(c1)CNCc1nnc([C@H]3CC[C@H](OC4CCOCC4)CC3)n1-2` [Example 61, trans-8-Chloro-1-[4-(tetrahydro-pyran-4-yloxy)-cyclohexyl]-5,6-dihydro-4H-2,3,5,10b-tetraaza-benzoazulene hydrochloride] it is 447 nM. Turning to `CN1Cc2cc(Cl)ccc2-n2c(nnc2[C@H]2CC[C@H](OC3CCOCC3)CC2)C1` [Example 62, trans-8-Chloro-5-methyl-1-[4-(tetrahydro-pyran-4-yloxy)-cyclohexyl]-5,6-dihydro-4H-2,3,5,10b-tetraaza-benzoazulene], the Ki was 20 nM. With `Clc1ccc2c(c1)CNCc1nnc([C@H]3CC[C@@H](OC4CCOCC4)CC3)n1-2` [Example 63, cis-8-Chloro-1-[4-(tetrahydro-pyran-4-yloxy)-cyclohexyl]-5,6-dihydro-4H-2,3,5,10b-tetraaza-benzoazulene hydrochloride], the Ki was 288 nM. For `CN1Cc2cc(Cl)ccc2-n2c(nnc2[C@H]2CC[C@@H](OC3CCOCC3)CC2)C1` [Example 64, cis-8-Chloro-5-methyl-1-[4-(tetrahydro-pyran-4-yloxy)-cyclohexyl]-5,6-dihydro-4H-2,3,5,10b-tetraaza-benzoazulene], the Ki was 17 nM. On the same count and under the same terms, the figure for `CC(C)(C)OC(=O)N1Cc2cc(Cl)ccc2-n2c(nnc2[C@H]2CC[C@H](OC(F)(F)F)CC2)C1` [Example 65, trans-8-Chloro-1-(4-trifluoromethoxy-cyclohexyl)-4H,6H-2,3,5,10b-tetraaza-benzo[e]azulene-5-carboxylic acid tert-butyl ester] is 14.5 nM; for `FC(F)(F)O[C@H]1CC[C@H](c2nnc3n2-c2ccc(Cl)cc2CNC3)CC1` [Example 66, trans-8-Chloro-1-(4-trifluoromethoxy-cyclohexyl)-5,6-dihydro-4H-2,3,5,10b-tetraaza-benzo[e]azulene hydrochloride] it is 195 nM. With `CN1Cc2cc(Cl)ccc2-n2c(nnc2[C@H]2CC[C@H](OC(F)(F)F)CC2)C1` [Example 67, trans-8-Chloro-5-methyl-1-(4-trifluoromethoxy-cyclohexyl)-5,6-dihydro-4H-2,3,5,10b-tetraaza-benzo[e]azulene], the Ki was 26.3 nM.

As to `CC(C)(C)OC(=O)N1Cc2cc(Cl)ccc2-n2c(nnc2[C@H]2CC[C@H](OC(C)(C)C)CC2)C1` [Example 68, trans-1-(4-tert-Butoxy-cyclohexyl)-8-chloro-4H,6H-2,3,5,10b-tetraaza-benzo[e]azulene-5-carboxylic acid tert-butyl ester], the Ki was 3.8 nM.
